Assay results published in ChEMBL document CHEMBL1156687, “Design and microwave-assisted synthesis of 5-trifluoromethyl-4,5-dihydro-1H-pyrazoles: novel agents with analgesic and anti-inflammatory properties” (Eur J Med Chem, 2008).
Calls of active or inactive are those of the source. No cut-off for these calls is given here.

Legend:
Mus musculus [1] = assay: Analgesic activity against formalin-induced neurogenic pain in albino mouse assessed as time spent on paw licking at 1500 umol/kg, sc administered 20 mins before formalin challenge assessed for 30 mins at 5 mins intervals; type: functional, organism-based
Mus musculus [2] = assay: Increase in locomotor activity in albino mouse assessed as number of crossing at 1500 umol/kg; type: functional
Mus musculus [3] = assay: Analgesic activity against formalin-induced neurogenic pain in albino mouse assessed as time spent on paw licking at 1000 umol/kg, sc administered 20 mins before formalin challenge assessed for 30 mins at 5 mins intervals; type: functional
Mus musculus [4] = assay: Analgesic activity against formalin-induced inflammatory pain in albino mouse assessed as time spent on paw licking at 1000 umol/kg, sc administered 20 mins before formalin challenge assessed for 30 mins at 5 mins intervals; type: functional
Mus musculus [5] = assay: Analgesic activity against formalin-induced inflammatory pain in albino mouse assessed as time spent on paw licking at 1500 umol/kg, sc administered 20 mins before formalin challenge assessed for 30 mins at 5 mins intervals; type: functional, organism-based
Mus musculus [6] = assay: Analgesic activity in albino mouse assessed as response latency at 1000 ug/ml, sc after 30 mins by hot plate method; type: functional, organism-based
Mus musculus [7] = assay: Analgesic activity in albino mouse assessed as inhibition of carrageenan-induced paw edema at 1000 ug/ml; type: functional; design: scale not given: the % may be the effect or the level left
Mus musculus [8] = assay: Analgesic activity in albino mouse assessed as falling latency at 1000 ug/ml, sc after 30 mins by rotarod test; type: functional
Mus musculus [9] = assay: Analgesic activity in albino mouse assessed as number of falls from the rod at 1000 ug/ml, sc after 4 mins by rotarod test; type: functional
Mus musculus [10] = assay: Increase in locomotor activity in albino mouse assessed as number of crossing at 1000 umol/kg; type: functional
Mus musculus [11] = assay: Analgesic activity against formalin-induced inflammatory pain in albino mouse assessed as time spent on paw licking at 75 umol/kg, sc administered 20 mins before formalin challenge assessed for 30 mins at 5 mins intervals; type: functional, organism-based
Mus musculus [12] = assay: Analgesic activity against formalin-induced inflammatory pain in albino mouse assessed as time spent on paw licking at 250 umol/kg, sc administered 20 mins before formalin challenge assessed for 30 mins at 5 mins intervals; type: functional, organism-based
Mus musculus [13] = assay: Analgesic activity against formalin-induced inflammatory pain in albino mouse assessed as time spent on paw licking at 750 umol/kg, sc administered 20 mins before formalin challenge assessed for 30 mins at 5 mins intervals; type: functional
Mus musculus [14] = assay: Analgesic activity against formalin-induced neurogenic pain in albino mouse assessed as time spent on paw licking at 750 umol/kg, sc administered 20 mins before formalin challenge assessed for 30 mins at 5 mins intervals; type: functional
Mus musculus [15] = assay: Analgesic activity in albino mouse assessed as response latency at 1500 ug/ml, sc after 30 mins by hot plate method; type: functional, organism-based
Mus musculus [16] = species: Mus musculus; assay: Toxicity against in albino mouse after 72 hrs; type: organism-based; details: in vivo
Mus musculus [17] = assay: Analgesic activity against formalin-induced inflammatory pain in albino mouse assessed as time spent on paw licking at 25 umol/kg, sc administered 20 mins before formalin challenge assessed for 30 mins at 5 mins intervals; type: functional, organism-based

NC(=O)c1ccccc1O [SALICYLAMIDE]
Activity (Mus musculus [1]): inactive | Activity (Mus musculus [2]): 102.1

CCC1=NN(C(N)=O)C(O)(C(F)(F)F)C1 (centres undefined)
Activity (Mus musculus [3]): 87.9% | Activity (Mus musculus [4]): 98.2% | Activity (Mus musculus [1]): Active | Activity (Mus musculus [5]): Active | Activity (Mus musculus [6]): inactive | Activity (Mus musculus [7]): 43.7% | Activity (Mus musculus [8]): 112.5 s | Activity (Mus musculus [9]): 3.7 | Activity (Mus musculus [10]): 165.6

CCCC1=NN(C(N)=O)C(O)(C(F)(F)F)C1 (centres undefined)
Activity (Mus musculus [11]): Active | Activity (Mus musculus [12]): inactive | Activity (Mus musculus [13]): 70.1% | Activity (Mus musculus [14]): 48.2%

Cc1c(N(C)CS(=O)(=O)[O-])c(=O)n(-c2ccccc2)n1C.[Na+] [DIPYRONE SODIUM]
Activity (Mus musculus [1]): Active | Activity (Mus musculus [15]): Active | Activity (Mus musculus [10]): 87.7

NC(=O)N1N=C(c2ccc(Br)cc2)CC1(O)C(F)(F)F (centres undefined)
Activity (Mus musculus [3]): 33.3% | Activity (Mus musculus [4]): 47.3%

NC(=O)N1N=CCC1(O)C(F)(F)F (centres undefined)
Activity (Mus musculus [3]): 32.8% | Activity (Mus musculus [4]): 70.8%

NC(=O)N1N=C(c2ccccc2)CC1(O)C(F)(F)F (centres undefined)
Activity (Mus musculus [3]): 10% | Activity (Mus musculus [4]): 8.2%

CCCCC1=NN(C(N)=O)C(O)(C(F)(F)F)C1 (centres undefined)
Activity (Mus musculus [13]): -22.3% | Activity (Mus musculus [14]): 46%

CC1C=NN(C(N)=O)C1(O)C(F)(F)F (centres undefined)
Activity (Mus musculus [3]): 74.6% | Activity (Mus musculus [4]): 97.2% | Activity (Mus musculus [1]): Active | Activity (Mus musculus [5]): Active | Activity (Mus musculus [6]): inactive | Activity (Mus musculus [7]): 34.6% | Activity (Mus musculus [8]): 62.6 s | Activity (Mus musculus [9]): 5.1 | Activity (Mus musculus [10]): 167.3 | Activity (Mus musculus [16]): Non-toxic

CC1=NN(C(N)=O)C(O)(C(F)(F)F)C1 (centres undefined)
Activity (Mus musculus [3]): 23.3% | Activity (Mus musculus [4]): 55.5%

CC(C)(C)C1=NN(C(N)=O)C(O)(C(F)(F)F)C1 (centres undefined)
Activity (Mus musculus [3]): 59.1% | Activity (Mus musculus [4]): 72.9%

CC(C)C1=NN(C(N)=O)C(O)(C(F)(F)F)C1 (centres undefined)
Activity (Mus musculus [13]): 67% | Activity (Mus musculus [14]): 51.9% | Activity (Mus musculus [17]): Active | Activity (Mus musculus [16]): Non-toxic
